Laboratory results from patent publication US5854276A, “Substance WF16616, process for production thereof, and use thereof” (Fujisawa Pharmaceutical Co., Ltd., priority 1995, dated 1998).
In brackets after ≈: the same amount, converted by molar mass.

Experiments:
ICR female mice = assay: Toxicity test, intraperitoneal injection in mice; assay type: in vivo; details: 5 mg/kg intraperitoneally once a day for three days
Experimental: WF16616 substance was intraperitoneally injected into each of five 5-week-old ICR female mice at a dose of 5 mg/kg once a day for three days.

[1] = system: Cryptococcus neoformans YC203; assay: Antifungal activity, microbroth dilution in YNBD medium, Cryptococcus neoformans YC203; assay type: cell-based; details: 1×10^4 cfu/100 μl/well, 30° C., 48 hours, 0.5% glucose-containing YNBD, microscopical observation
Experimental: (§1) The antifungal activity of WF16616 substnace was measured in a 0.5% glucose-containing yeast nitrogen base (YNBD) medium by a microbroth dilution analysis method using a 96-well microtiter plate. This substance was dissolved in methanol, and was diluted to twice in sequence in the microtiter plate using the YNBD medium. The test microorganism was inoculated at a concentration of 1×10^4 cfu/100 μl/well. Candida albicans and Aspergillus fumigatus were incubated in the above-mentioned plate at 37° C. for 22 hours, and Cryptococcus neoformans at 30° C. for 48 hours, respectively. Then, MIC was measured through microscopical observation.

Candida albicans No. 7 = assay: Antifungal activity, microbroth dilution in YNBD medium, Candida albicans No. 7; assay type: cell-based; details: 1×10^4 cfu/100 μl/well, 37° C., 22 hours, 0.5% glucose-containing YNBD, microscopical observation
Experimental: as §1

[2] = system: Aspergillus fumigatus FD050; assay: Antifungal activity, microbroth dilution in YNBD medium, Aspergillus fumigatus FD050; assay type: cell-based; details: 1×10^4 cfu/100 μl/well, 37° C., 22 hours, 0.5% glucose-containing YNBD, microscopical observation
Experimental: as §1

Candida albicans FP633 = assay: Antifungal activity, microbroth dilution in YNBD medium, Candida albicans FP633; assay type: cell-based; details: 1×10^4 cfu/100 μl/well, 37° C., 22 hours, 0.5% glucose-containing YNBD, microscopical observation
Experimental: as §1

CCC(C)CC(C)CCCCCCCCC(=O)NC1CC(O)C(O)NC(=O)C2C(O)C(C)CN2C(=O)C(C(O)CC(N)=O)NC(=O)C(C(O)C(O)c2ccc(O)c(OS(=O)(=O)O)c2)NC(=O)C2CC(O)CN2C(=O)C(C(C)O)NC1=O (stereo not drawn) [WF16616 substance]
dead mice (ICR female mice; five 5-week-old ICR female mice): none of the mice were dead
increase in the weight of mice (ICR female mice; versus unadministered mice): quite the same as that in the weight of unadministered mice
MIC [1]: > 50 µg/mL
MIC (Candida albicans No. 7): 0.78 µg/mL (≈ 0.664 µM)
MIC [2]: 0.16 µg/mL (≈ 0.136 µM)
MIC (Candida albicans FP633): 0.1 µg/mL (≈ 0.0851 µM)
